In US9783796B2, “Amidase, gene for the same, vector, transformant, and method for production of optically active carboxylic acid amide and optically active carboxylic acid by using any one of those items” (KANEKA CORPORATION, priority 2007, dated 2017):
“Also recorded” adds a separate entry of the source. Where two headings read alike, the source gives them in different places.

B1: HCS: amidase purified from Cupriavidus sp. KNK-J915 strain (FERM BP-10739), amino acid sequence SEQ ID NO:1 (protein, listed as Cupriavidus sp.)
chain: MPTDIQTLQTRLHDGAVSRADVIAQAAQHAQQPDAHAVFLHTTFDTAAQVAKAADAACLAGKPLHPLAGLPVSVKDLFNIAGEASRAGSPVRSDALAATADATVVRRLRESGAALVGRTNMTEFAFSGVGINPHFGTPVNPADKQVARIPGGSSSGAAVSVALGLAVAGLGSDTGGSIRIPAALCGLTGFKPTARRVPLDGAFPLSYTLDTACAMARTVQDCVLVDSVIADQAVLPVIKGAAGIRLAIPRQVLLDDLDDTVARAFDRALGRLSAAGVQIEHIDLPELAELATINASGGFTAAEAHAIHRHVLATRREQYDPRVASRIDRGAAMSAADYVDLMRARLDWITRVAARLEGFDAVACPTVPMVAPPIAPLVADDALFFHTNALLLRNTSAFNFLDGCSISLPCHQPDELPVGLMLSHGALRDAQLLGTAIALESIVKPAA

Assays:
E. coli HB101 (pNCS) = assay: Selective hydrolysis of S-enantiomer in racemic nipecotamide with culture solution of E. coli HB101 (pNCS); format: biochemical, Escherichia coli; conditions: pH 8.0, 25 hours, 45° C.; for optical purity: from racemic nipecotamide
Protocol: An amount of 10.1 g of racemic nipecotamide was dissolved in water to prepare a substrate solution having a pH adjusted to 8.0. To 200 ml of the prepared substrate solution was added 2 ml of a culture solution obtained by culturing E. coli HB101 (pNCS) as in Example 6, and stirred for 25 hours at 45° C. After completion of the reaction, the reaction liquid was heated for 30 minutes at 70° C., and centrifuged to remove solid matters including cells. Subsequently, the substrate and the product in the reaction liquid were converted into derivatives with benzyl chloroformate. The obtained derivatives were analyzed by high speed liquid chromatography to determine the conversion ratio (%) and optical purity (% e.e.). […] Conversion ratio (%)=P/(S1+P)×100
(§1) (P: amount of product (mol), S1: amount of residual substrate (mol)) Optical purity (% e.e.)=(A−B)/(A+B)×100
(§2) (A represents the amount of the target enantiomer, and B represents the amount of the corresponding enantiomer.)
High Speed Liquid Chromatography Analysis Condition
[Analysis of Conversion Ratio]
(§3) Column: YMC-A303 (4.6 mmφ×250 mm, product of YMC Co., Ltd.)
Eluant: 20 mM phosphate aqueous solution (pH 2.5)/acetonitrile=7/3
Column temperature: 35° C.
(§4) Measurement wavelength: 210 nm
[Optical Purity Analysis]
Column: CHIRALPAK AD-RH (4.6 mmφ×150 mm, product of DAICEL CHEMICAL INDUSTRIES, LTD.)
Column temperature: room temperature

HCS = assay: Substrate specificity of HCS; format: biochemical, Cupriavidus sp. KNK-J915; conditions: for Relative activity (%): activity on (R,S)-nipecotamide set to 100, 1% substrate, 30° C., 100 mM phosphate buffer pH 7.0
Protocol: Next, the substrate specificity of HCS was analyzed. The substrate compound was added in a form of a 1% solution. The enzyme reaction was allowed to proceed at 30° C. in 100 mM phosphate buffer (pH 7.0). The resultant solution was analyzed under the high speed liquid chromatography analysis conditions A described in Example 1 or the high speed liquid chromatography analysis conditions B shown below.
High Speed Liquid Chromatography Analysis Condition B
Column: SUMICHIRAL OA-5000 (4.6 mmφ×150 mm, product of Sumika Chemical Analysis Service, Ltd.)
Eluant: 2 mM CuSO4 aqueous solution
(§5) Column temperature: 30° C.
Measurement wavelength: 254 nm

purified enzyme (HCS) = assay: Selective hydrolysis of racemic carboxylic acid amides with the purified enzyme solution (Examples 8 to 10); format: biochemical, Cupriavidus sp. KNK-J915; conditions: 100 mM phosphate buffer pH 7.0, 30° C.; for conversion ratio: 1% substrate; for optical purity: product acid, 1% racemic substrate
Protocol: To 100 mM phosphate buffer (pH 7.0) were added 1% racemic pipecolic acid amide and the purified enzyme solution obtained in Example 1, and allowed to react at 30° C. Then high speed liquid chromatography analysis was conducted to determine the conversion ratio (%) and optical purity (% e.e.). […] Conversion ratio (%)=P/(S1+P)×100
as §1, §2
To 100 mM phosphate buffer solution (pH 7.0) were added 1% racemic indoline carboxylic acid amide and the purified enzyme solution obtained in Example 1. The obtained mixture was allowed to react at 30° C., and then the substrate and product in the reaction liquid were converted into derivatives with acetic anhydride. The conversion ratio (%) and optical purity (% e.e.) were determined by high speed liquid chromatography analysis of the obtained derivatives.
To 100 mM phosphate buffer (pH 7.0) were added 1% racemic phenyl propionic acid amide and the purified enzyme solution obtained in Example 1, and allowed to react at 30° C. The conversion ratio (%) and optical purity (% e.e.) were determined by high speed liquid chromatography analysis.

[1] = test system: putative amidase derived from Ralstonia eutropha JMP134 strain; assay: Selective hydrolysis of S-enantiomer in racemic N-benzylnipecotamide with culture solution of E. coli HB101 (pNRE); format: biochemical
Description: Primer 7 (SEQ ID NO:10 in the sequence listing) having the NdeI site added to the initiation codon site, and primer 8 (SEQ ID NO:11 in the sequence listing) having an SacI site immediately downstream of the termination codon were synthesized based on the base sequence (SEQ ID NO:9 in the sequence listing) encoding the putative amidase derived from Ralstonia eutropha JMP134 strain, which has high sequence identity to the base sequence of the present invention derived from Cupriavidus sp. KNK-J915 (FERM BP-10739) determined in Example 3. An amount of 50 μl of a buffer for ExTaq was prepared. This buffer contained the two primers (primer 7 and primer 8, each 50 pmol), chromosomal DNA derived from Ralstonia eutropha JMP134 strain (10 ng), dNTP (each 10 nmol) and ExTaq (2.5 U, product of TAKARA SHUZO Co., Ltd.). Heat denaturation (97° C., 1 minute), annealing (60° C., 1 minute), and an extension reaction (72° C., 1.5 minutes) were repeated for 30 cycles. The reaction fluid was cooled to 4° C. and subjected to agarose gel electrophoresis to confirm amplification of the DNA. […]
To 100 mM phosphate buffer (pH 7.0) were added 1% racemic N-benzylnipecotamide and the culture solution of E. coli HB101 (pNRE) obtained in Example 11, and allowed to react at 30° C. Thereafter, the conversion ratio (%) and optical purity (% e.e.) were determined by high speed liquid chromatography analysis. […]

[2] = Optimum pH, optimum temperature and thermal stability of the amidase reaction of purified HCS; format: biochemical; conditions: stable at or below this temperature
Protocol: The Optimum pH and optimum temperature of an amidase reaction of the purified enzyme obtained in Example 1, and thermal stability of the enzyme were determined by quantifying N-benzylnipecotic acid produced in the hydrolysis reaction using N-benzylnipecotamide as a substrate, by HPLC. For determination of the optimum pH, the reaction was allowed to proceed at each pH for 1 hour at 30° C., and stopped by addition of acetonitrile. The resultant solution was analyzed under the high speed liquid chromatography analysis conditions A described in Example 1. For determination of the optimum temperature, the reaction was allowed to proceed at each temperature for 1 hour, and stopped by addition of acetonitrile. The resultant solution was analyzed under the high speed liquid chromatography analysis conditions A described in Example 1. For determining the thermal stability, after incubation at each temperature for 30 minutes, the reaction was allowed to proceed for 1 hour, and stopped by addition of acetonitrile. The resultant solution was analyzed under the high speed liquid chromatography analysis conditions A described in Example 1.

[3] = Amidase activity of purified enzyme (production of N-benzylnipecotic acid, HPLC); format: biochemical; conditions: 1% N-benzylnipecotamide, 100 mM phosphate buffer pH 7.0, 1 hour, 30° C.
Protocol: In the following examples, the amidase activity was determined by the following procedure. To 100 mM phosphate buffer (pH 7.0) were added 1% N-benzylnipecotamide and an enzyme solution, and allowed to react for 1 hour at 30° C. Then, the solution was analyzed under high speed liquid chromatography analysis conditions A. Enzyme activity which produces 1 μmol of N-benzylnipecotic acid per 1 minute under these conditions was defined as 1 unit.
High Speed Liquid Chromatography Analysis Condition A
as §3
Eluant: 20 mM phosphate aqueous solution (pH 2.5)/acetonitrile=9/1
as §5, §4

| Molecule | amidase activity of HCS on the substrate (in words) (HCS) | Relative activity (%) (HCS) | further results |
| --- | --- | --- | --- |
| NC(=O)C1CCCNC1 (racemic) [(R,S)-nipecotamide] | particularly strong amidase activity; also recorded: especially strong activity | 100% | conversion ratio (E. coli HB101 (pNCS)): 50.2% |
| NC(=O)C1CCCN1 (racemic) [D,L-proline amide] |  | 0% |  |
| NC(=O)[C@@H]1CCCNC1 [(R)-nipecotamide] |  |  | optical purity (E. coli HB101 (pNCS)): 98.3 % e.e. |
| CCC(N)=O [propionic acid amide] | particularly strong amidase activity; also recorded: especially strong activity | 59% |  |
| NC(=O)C(N)Cc1ccccc1 (racemic) [D,L-phenylalanine amide] | weak amidase activity | 3.4% |  |
| CC(C(N)=O)c1ccccc1 (racemic) [(R,S)-phenyl propionic acid amide] |  | 309% | amidase activity of HCS on the substrate (in words) (HCS; listed as phenyl propionic acid amide): particularly strong amidase activity; amidase activity of HCS on the substrate (in words) (HCS; listed as phenylpropionic acid amide): especially strong activity; conversion ratio (purified enzyme (HCS)): 36.0% |
| O=C(O)[C@H]1CCCCN1 [(R)-pipecolic acid] |  |  | optical purity (purified enzyme (HCS)): 80.1 % e.e. |
| CC(C)C(N)=O [isobutylamide] | particularly strong amidase activity; also recorded: especially strong activity | 230% |  |
| NC(=O)C1CCCCN1 (racemic) [(R,S)-pipecolic acid amide] | particularly strong amidase activity; also recorded: especially strong activity | 34% | conversion ratio (purified enzyme (HCS)): 18.3% |
| O=C(NCc1ccccc1)C1CCCNC1 (racemic) [(R,S)-N-benzylnipecotamide] | particularly strong amidase activity; also recorded: especially strong activity | 49% | conversion ratio ([1]; 1% substrate, 100 mM phosphate buffer pH 7.0, 30° C.): 50.1% |
| CC(N)C(N)=O (racemic) [D,L-alanine amide] |  | 0% |  |
| O=C(O)[C@H]1CCCNC1 [(S)-nipecotic acid] |  |  | optical purity (E. coli HB101 (pNCS)): 97.1 % e.e. |
| NC(=O)CC(N)c1ccccc1 (racemic) [D,L-β-phenylalanine amide] |  | 0% |  |
| NC(=O)C1Cc2ccccc2N1 (centres unmarked) | particularly strong amidase activity; also recorded: especially strong activity | 64% | conversion ratio (purified enzyme (HCS)): 39.2% |
| CC(C)CC(N)C(N)=O (racemic) [D,L-leucine amide] |  | 0% |  |
| NC(=O)C(O)c1ccccc1 (racemic) [(R,S)-mandelic acid amide] | particularly strong amidase activity; also recorded: especially strong activity | 49% |  |
| O=C(NCc1ccccc1)[C@@H]1CCCNC1 [(R)—N-benzylnipecotamide] |  |  | optical purity ([1]; residual amide, pH 7.0, 30° C.): 99.4 % e.e. |
| C[C@H](C(=O)O)c1ccccc1 [(S)-phenyl propionic acid] |  |  | optical purity (purified enzyme (HCS)): 89.1 % e.e. |
| O=C(O)[C@H]1Cc2ccccc2N1 [(R)-indoline carboxylic acid] |  |  | optical purity (purified enzyme (HCS)): 97.8 % e.e. |
| NC(=O)c1ccccc1 [benzamide] | weak amidase activity | 5.4% |  |
| B1 |  |  | Thermal stability: temperature at which stable [2]: ≤ 50 °C; specific activity of the purified enzyme [3]: 1.7 U/mg-protein |
